Legend:
[1] = test system: HCT116 cells; test: SRB growth inhibition assay; format: cell-based, human; settings: for IC50 / GI50: Homo sapiens; for IC50: HCT-116, 96 h, Figure 6D (cell line not given); for GI50: HCT-116, geometrical mean, n = 18
Procedure: Adherent cell lines (HCT116 and A549 cells) were seeded into flat-bottomed tissue culture 96-well plates in a volume of 150 μL of growth medium. HCT116 cells were seeded at 750 cells per well and A549 cells were seeded at 1000 cells per well. After 24 hours, compounds dissolved in DMSO were diluted in growth medium and were added to cells such that the final DMSO concentration was 1% (v/v) and the final volume in the well was 200 μL. Cells were then incubated in the presence of compound for 96 hours before fixation.
Medium was removed from cells and 100 μL of cold 1% (v/v) trichloroacetic acid was added for 30 minutes at 4 degrees. The plates were washed three times in tap water and left to dry at room temperature. The fixed cells were stained in a 0.057% sulphorodamine B/1% acetic acid solution (w/v) and incubated at room temperature with agitation for 30 minutes after which the dye was removed and the plates washed in 1% (v/v) acetic acid and left to dry. The dye was then solubilised in 10 mM Tris solution (pH8) and incubated for 30 minutes under agitation. The plates were then read on a PHERAstar plus plate reader (BMG Labtech) using the fluorescence intensity module (540-590 nm). Growth inhibition was calculated relative to DMSO controls and GI50 values were calculated using Graphpad Prism.

[2] = test system: Caco-2; test: Caco-2 permeability; format: in vitro ADME; settings: summary of Table S1
[3] = Caco-2 permeability; format: in vitro ADME; settings: human, Caco-2
[4] = test system: HepG2; test: cells; settings: Homo sapiens, HepG2, read-out: Absolute EC50, growth inhibition
[5] = test system: PC3; test: cells; settings: Homo sapiens, PC-3, read-out: Absolute EC50, growth inhibition
[6] = test system: SK-MEL-24; test: cells; settings: Homo sapiens, SK-MEL-24, read-out: Absolute EC50, growth inhibition
[7] = Microsomal intrinsic clearance; settings: human, human microsomes
[8] = test system: RAD51 clusters in EUFA423 + BRCA2 cells; test: RAD51 molecular clustering by SMLM (d-STORM); format: cell-based, human; settings: 25 μM
Procedure: (§1) […]; [Howlett et al., 2002]). We developed, as isogenic controls, EUFA423 cells complemented by the expression of full-length BRCA2 (EUFA423 + BRCA2) ([Hattori et al., 2011]). […]. […] […].
(§2) Single Molecule Localization Microscopy (SMLM) was achieved by direct Stochastic Optical Reconstruction Microscopy (d-STORM) as described ([Haas et al., 2018]). Briefly, samples were prepared for one colour 2D d-STORM utilizing a buffer containing 100 mM MEA-HCL (Sigma, M6500), 10% glucose (Sigma), 0.5 mg/ml glucose oxidase (Sigma, G2133) and 40 μg/ml catalase (Sigma, C100) in water at pH 7.5. Samples were imaged by direct STORM at room temperature in sealed 8-well ibidi μ-slides utilizing an inverted N-STROM microscope (Nikon Ti, Japan) equipped with an Apochromat 100x/1.49 NA oil immersion objective. Samples were let to equilibrate for at least 30 minutes before imaging to minimize thermal drift. Images were then acquired with highly inclined illumination and focus was maintained by hardware autofocusing (Nikon Perfect Focus System). AlexaFluor647 was first pumped in its dark state using the 640 nm laser line at maximum power (~150 mW) and then imaged continuously with a power density of ~3 kW/cm^2. Data were acquired in ‘streaming mode’ with a field-of-view (FOV) of 256x256 pixels (160 nm pixel size), at 65 frames per second for 25,000 frames with an EMCCD camera (iXon Ultra DU897, Andor). The sparsity of single molecules per frame was controlled using ~0.6 mW of the 405 nm laser. Images of AlexaFluor647 were acquired with a Quad Band Set for TIRF applications (Chroma, TRF89901, ET – 405/488/561/640 nm) and the ET645/75 m emission filter (Chroma).
(§3) Single molecule data was analysed using the Grafeo program available at https://github.com/inatamara/Grafeo-dSTORM-analysis-, as described in ([Haas et al., 2018]). Briefly, all localizations with fewer than 1,000 detected photons or localization precision lower than 20 nm were discarded. Next, the data was filtered using 2D Voronoi diagrams, setting the minimum density (an inverse of Voronoi polygon VP size) to 5∗10^-5 nm^-2. […]

[9] = test system: RAD51 clusters in EUFA423 cells; test: RAD51 molecular clustering by SMLM (d-STORM); format: cell-based, human; settings: 25 μM, 3 h after 3 Gy IR
Procedure: as §1, §2, §3

In the case of `COc1ccc([C@H](C)NC(=O)[C@@H]2C[C@@H](O)CN2C(=O)CNC(=O)c2ccc3cc(F)ccc3n2)c(Cl)c1` [CAM833, N-(2-((2S,4R)-2-(((S)-1-(2-chloro-4-methoxyphenyl)ethyl)carbamoyl)-4-hydroxypyrrolidin-1-yl)-2-oxoethyl)-6-fluoroquinoline-2-carboxamide], the “GI50 with 3 Gy IR lower than GI50 for compound alone” value ([1]; HCT116) is reported as “more than 2 fold”, the IC50 ([1]; 0 Gy IR, SRB 96 h) is reported as 63.5 µM and the IC50 ([1]; 1 Gy IR, SRB 96 h) is reported as 30.4 µM. The IC50 ([1]; 2 Gy IR, SRB 96 h) was 13 µM, the IC50 ([1]; 3 Gy IR, SRB 96 h) was 11.8 µM and the GI50 ([1]; HCT116, CAM833 alone, 96 h exposure) was 38 µM. For the same molecule, the GI50 ([1]; HCT116, combined with 3 Gy IR) was 14 µM, the “effect of combination with increasing doses of IR on growth suppression (in words)” value ([1]; fixed 10 μM dose, 0 to 3 Gy IR, SRB 96 h) was “potentiates” and the “permeability (in words)” value [2] was “moderate”. It also gave an efflux ratio [3] of 195, a Papp A→B ([3]; A to B, read-out: Caco-2 permeability AtoB Papp) of 0.23 ×10⁻⁶ cm/s and an EC50 [4] of 68.1 µM. For the same molecule, the EC50 [5] was 91.2 µM, the EC50 [6] was 144 µM and the half-life [7] was 1.28 h. For the same molecule, the microsomal CLint [7] was 18 ± 4.52 µL/min/mg, the “formation of elongated RAD51 filaments (in words)” value ([8]; 3 Gy IR) was “prevents the formation of elongated filaments” and the “RAD51 accumulation in damage-induced foci (in words)” value ([8]; 3 h after 3 Gy IR) was “significantly reduces”. The “RAD51 accumulation in damage-induced foci (in words)” value [9] was “significantly reduces”.

Reference: article PMC8219027, “A small-molecule inhibitor of the BRCA2-RAD51 interaction modulates RAD51 assembly and potentiates DNA damage-induced cell death” (Cell Chemical Biology, 2021)
